According to ChEMBL document CHEMBL4706543, “Discovery of the first potent and selective αβ integrin inhibitor based on an amide-containing core” (Eur J Med Chem, 2020):
≈ marks a conversion by molar mass, not a printed value.

Tests used:
Homo sapiens = organism: Homo sapiens; test: Selectivity ratio of IC50 for inhibition of integrin alphavbeta3 (unknown origin) to IC50 for inhibition of integrin alphavbeta5 (unknown origin)
Integrin alpha-V/beta-3 [1] = molecular target: T1, Integrin alpha-V/beta-3 (Homo sapiens, UniProt P05106+P06756); test: Inhibition of integrin alphavbeta3 (unknown origin) by fluorescence polarization assay
Integrin alpha-V/beta-5 [2] = molecular target: T2, Integrin alpha-V/beta-5 (Homo sapiens, UniProt P06756+P18084); test: Inhibition of integrin alphavbeta5 (unknown origin) by fluorescence polarization assay
Integrin alpha-V/beta-3 [3] = molecular target: T1, Integrin alpha-V/beta-3; test: Inhibition of human alphavbeta3 integrin stably expressed in human K562 cells assessed as inhibition of cell adhesion to GST-LAP1 incubated for 30 mins by BCECF-AM staining based fluorescence assay
Integrin alpha-V/beta-5 [4] = molecular target: T2, Integrin alpha-V/beta-5; test: Inhibition of human alphavbeta5 integrin stably expressed in human K562 cells assessed as inhibition of cell adhesion to vitronectin incubated for 30 mins by BCECF-AM staining based fluorescence assay
Integrin alpha-V/beta-6 = Integrin alpha-V/beta-6 (Homo sapiens, UniProt P06756+P18564); test: Inhibition of integrin alphavbeta6 (unknown origin) by fluorescence polarization assay; assay type: protein-complex assay
Integrin alpha-V/beta-8 = Integrin alpha-V/beta-8 (Homo sapiens, UniProt P06756+P26012); test: Inhibition of integrin alphavbeta8 (unknown origin) by fluorescence polarization assay; assay type: protein-complex assay
Integrin alpha-V/beta-1 = Integrin alpha-V/beta-1 (Homo sapiens, UniProt P05556+P06756); test: Inhibition of integrin alphavbeta1 (unknown origin) by fluorescence polarization assay; assay type: protein-complex assay
[5] = Clearance in human hepatocytes based well stirred model; assay type: ADME, cell-based, Hepatocyte
[6] = Solubility of the compound by CAD method; assay type: physicochemical
[7] = Lipophilicity, log D of compound by chromatographic method; assay type: physicochemical
[8] = Clearance in human microsomes assessed per gram tissue; assay type: ADME, Microsome
[9] = Clearance in rat microsomes based well stirred model; assay type: ADME, Microsome
[10] = Clearance in human hepatocytes assessed per gram tissue; assay type: ADME, cell-based, Hepatocyte
[11] = Clearance in rat hepatocytes based well stirred model; assay type: ADME, cell-based, Hepatocyte
[12] = Clearance in human microsomes based well stirred model; assay type: ADME, Microsome
[13] = Passive permeability of compound in MDCK cells; assay type: ADME, cell-based, Canis lupus familiaris; details: dog, read-out: permeability
[14] = Clearance in rat hepatocytes assessed per gram tissue; assay type: ADME, cell-based, Hepatocyte
[15] = Clearance in rat microsomes assessed per gram tissue; assay type: ADME, Microsome

T1 sequence (P05106 27-788 limits assumed): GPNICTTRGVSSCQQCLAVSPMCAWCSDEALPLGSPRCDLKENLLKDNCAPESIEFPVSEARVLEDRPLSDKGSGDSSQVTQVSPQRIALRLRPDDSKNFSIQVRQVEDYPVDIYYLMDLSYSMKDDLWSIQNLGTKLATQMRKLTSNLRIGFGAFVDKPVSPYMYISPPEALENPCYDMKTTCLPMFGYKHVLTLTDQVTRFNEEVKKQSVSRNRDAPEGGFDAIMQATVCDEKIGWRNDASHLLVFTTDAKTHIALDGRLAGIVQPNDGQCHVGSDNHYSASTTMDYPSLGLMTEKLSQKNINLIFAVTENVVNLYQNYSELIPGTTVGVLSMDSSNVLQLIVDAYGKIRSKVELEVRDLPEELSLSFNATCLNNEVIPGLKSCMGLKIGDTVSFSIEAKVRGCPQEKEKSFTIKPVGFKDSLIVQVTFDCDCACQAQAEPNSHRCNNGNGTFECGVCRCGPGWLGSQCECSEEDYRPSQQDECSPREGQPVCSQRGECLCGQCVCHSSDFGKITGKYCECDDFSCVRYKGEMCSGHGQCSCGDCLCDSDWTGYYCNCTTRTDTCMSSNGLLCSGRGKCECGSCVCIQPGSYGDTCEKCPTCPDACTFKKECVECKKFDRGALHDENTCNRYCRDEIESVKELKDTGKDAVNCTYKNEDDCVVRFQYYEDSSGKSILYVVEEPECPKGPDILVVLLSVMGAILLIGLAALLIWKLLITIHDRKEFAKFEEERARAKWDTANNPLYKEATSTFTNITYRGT
T1 sequence (P06756 31-889 limits assumed): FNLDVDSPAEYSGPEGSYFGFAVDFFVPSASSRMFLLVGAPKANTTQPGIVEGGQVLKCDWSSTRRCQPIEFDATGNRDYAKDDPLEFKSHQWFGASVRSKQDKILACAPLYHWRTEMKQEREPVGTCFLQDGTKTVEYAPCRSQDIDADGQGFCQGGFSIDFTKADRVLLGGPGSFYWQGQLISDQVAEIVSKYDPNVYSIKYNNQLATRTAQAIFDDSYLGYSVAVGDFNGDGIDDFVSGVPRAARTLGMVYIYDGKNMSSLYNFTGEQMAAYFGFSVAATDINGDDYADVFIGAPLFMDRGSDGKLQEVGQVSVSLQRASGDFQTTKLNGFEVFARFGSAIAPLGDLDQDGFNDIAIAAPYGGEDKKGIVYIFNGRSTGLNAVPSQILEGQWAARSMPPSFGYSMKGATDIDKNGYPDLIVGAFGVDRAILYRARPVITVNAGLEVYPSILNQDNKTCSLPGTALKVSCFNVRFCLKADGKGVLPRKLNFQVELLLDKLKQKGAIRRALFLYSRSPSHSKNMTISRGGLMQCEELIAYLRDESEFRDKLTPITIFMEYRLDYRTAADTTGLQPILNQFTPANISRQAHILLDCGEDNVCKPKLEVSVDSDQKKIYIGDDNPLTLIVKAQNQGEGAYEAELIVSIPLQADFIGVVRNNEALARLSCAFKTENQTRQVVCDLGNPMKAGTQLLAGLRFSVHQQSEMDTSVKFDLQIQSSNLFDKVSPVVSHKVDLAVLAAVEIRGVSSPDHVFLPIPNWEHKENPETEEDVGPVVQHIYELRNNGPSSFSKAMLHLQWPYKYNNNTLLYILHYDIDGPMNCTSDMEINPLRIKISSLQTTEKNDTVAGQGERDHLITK
T1 sequence (P06756 891-1048 limits assumed): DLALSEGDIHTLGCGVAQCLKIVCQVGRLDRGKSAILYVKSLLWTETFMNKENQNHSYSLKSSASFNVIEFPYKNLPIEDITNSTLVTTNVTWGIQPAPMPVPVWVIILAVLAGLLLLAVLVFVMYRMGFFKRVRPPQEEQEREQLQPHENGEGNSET
T2 sequence (P06756 31-889 limits assumed): as the sequence (P06756 31-889 limits assumed) above
T2 sequence (P06756 891-1048 limits assumed): as the sequence (P06756 891-1048 limits assumed) above
T2 sequence (P18084 24-799 limits assumed): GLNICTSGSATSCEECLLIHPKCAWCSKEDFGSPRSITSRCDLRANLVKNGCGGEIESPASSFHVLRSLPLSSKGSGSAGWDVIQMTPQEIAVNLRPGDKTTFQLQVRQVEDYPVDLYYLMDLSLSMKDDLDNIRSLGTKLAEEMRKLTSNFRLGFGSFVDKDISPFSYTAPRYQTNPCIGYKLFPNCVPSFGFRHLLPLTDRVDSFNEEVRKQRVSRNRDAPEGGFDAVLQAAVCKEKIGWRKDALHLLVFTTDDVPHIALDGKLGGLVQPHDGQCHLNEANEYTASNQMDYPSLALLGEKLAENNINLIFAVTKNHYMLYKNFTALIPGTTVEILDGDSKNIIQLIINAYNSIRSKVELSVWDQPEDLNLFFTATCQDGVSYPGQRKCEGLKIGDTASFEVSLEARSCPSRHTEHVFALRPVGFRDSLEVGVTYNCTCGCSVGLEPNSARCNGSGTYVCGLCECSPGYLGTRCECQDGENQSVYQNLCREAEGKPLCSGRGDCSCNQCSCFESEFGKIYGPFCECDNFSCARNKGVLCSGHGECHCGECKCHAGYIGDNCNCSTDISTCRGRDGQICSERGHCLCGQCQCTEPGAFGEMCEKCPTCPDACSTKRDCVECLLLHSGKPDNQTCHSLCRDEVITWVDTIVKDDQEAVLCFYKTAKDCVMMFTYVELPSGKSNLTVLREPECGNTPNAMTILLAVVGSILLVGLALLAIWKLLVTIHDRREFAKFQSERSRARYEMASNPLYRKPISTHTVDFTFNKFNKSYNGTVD
Sequence of Integrin alpha-V/beta-1 (P05556 21-798 limits assumed): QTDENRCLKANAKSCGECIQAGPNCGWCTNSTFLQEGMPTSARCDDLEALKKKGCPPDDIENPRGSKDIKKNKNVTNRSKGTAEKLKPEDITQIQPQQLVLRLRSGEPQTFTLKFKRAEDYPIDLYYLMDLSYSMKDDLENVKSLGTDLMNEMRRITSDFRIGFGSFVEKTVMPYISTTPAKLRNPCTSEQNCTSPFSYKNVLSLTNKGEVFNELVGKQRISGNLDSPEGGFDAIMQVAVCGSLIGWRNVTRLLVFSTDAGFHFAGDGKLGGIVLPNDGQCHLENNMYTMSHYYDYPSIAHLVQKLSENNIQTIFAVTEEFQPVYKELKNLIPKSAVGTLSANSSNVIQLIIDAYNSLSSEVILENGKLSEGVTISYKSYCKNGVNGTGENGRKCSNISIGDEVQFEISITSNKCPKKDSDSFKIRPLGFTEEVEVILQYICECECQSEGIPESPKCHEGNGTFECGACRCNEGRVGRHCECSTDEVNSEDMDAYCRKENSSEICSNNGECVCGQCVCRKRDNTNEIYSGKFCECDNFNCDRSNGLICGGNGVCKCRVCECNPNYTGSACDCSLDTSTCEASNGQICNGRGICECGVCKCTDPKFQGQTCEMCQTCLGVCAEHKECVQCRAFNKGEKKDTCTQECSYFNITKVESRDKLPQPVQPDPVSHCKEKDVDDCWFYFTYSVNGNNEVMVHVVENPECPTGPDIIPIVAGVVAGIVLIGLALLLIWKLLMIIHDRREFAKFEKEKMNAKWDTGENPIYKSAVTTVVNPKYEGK
Sequence of Integrin alpha-V/beta-1 (P06756 31-889 limits assumed): as the sequence (P06756 31-889 limits assumed) above
Sequence of Integrin alpha-V/beta-1 (P06756 891-1048 limits assumed): as the sequence (P06756 891-1048 limits assumed) above
Sequence of Integrin alpha-V/beta-8 (P06756 31-889 limits assumed): as the sequence (P06756 31-889 limits assumed) above
Sequence of Integrin alpha-V/beta-8 (P06756 891-1048 limits assumed): as the sequence (P06756 891-1048 limits assumed) above
Sequence of Integrin alpha-V/beta-8 (P26012 43-769 limits assumed): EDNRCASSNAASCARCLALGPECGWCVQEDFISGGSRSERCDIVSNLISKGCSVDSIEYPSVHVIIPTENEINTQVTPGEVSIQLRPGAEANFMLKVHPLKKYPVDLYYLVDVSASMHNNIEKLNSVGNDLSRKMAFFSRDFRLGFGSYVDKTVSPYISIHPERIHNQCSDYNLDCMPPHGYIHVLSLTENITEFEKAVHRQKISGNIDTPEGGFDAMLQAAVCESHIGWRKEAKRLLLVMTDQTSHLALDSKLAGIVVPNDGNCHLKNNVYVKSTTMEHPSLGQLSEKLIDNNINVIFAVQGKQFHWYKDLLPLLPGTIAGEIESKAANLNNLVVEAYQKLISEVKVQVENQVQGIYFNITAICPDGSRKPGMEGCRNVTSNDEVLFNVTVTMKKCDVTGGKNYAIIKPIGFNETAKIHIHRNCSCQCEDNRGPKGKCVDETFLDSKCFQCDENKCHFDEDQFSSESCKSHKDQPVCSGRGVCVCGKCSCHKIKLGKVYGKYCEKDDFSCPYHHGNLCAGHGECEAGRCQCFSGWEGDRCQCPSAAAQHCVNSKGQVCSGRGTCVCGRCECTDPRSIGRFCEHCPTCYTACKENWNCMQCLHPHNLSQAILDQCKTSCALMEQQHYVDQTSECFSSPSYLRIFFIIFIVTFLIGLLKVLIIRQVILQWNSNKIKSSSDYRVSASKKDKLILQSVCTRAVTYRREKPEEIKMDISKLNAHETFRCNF

Row | SMILES | Ratio IC50 (Homo sapiens) | IC50 (Integrin alpha-V/beta-3 [1]) | IC50 (Integrin alpha-V/beta-5 [2]) | also measured
1 | O=C(O)C[C@H](C(=O)N1CC[C@@H](CCc2ccc3c(n2)NCCC3)C1)c1cccc(Br)c1 | 200 | 794 nM | 3.98 nM | –
2 | O=C(O)C[C@H](C(=O)N1CC[C@@H](CCc2ccc3c(n2)NCCC3)C1)c1cccc(N2CCNCC2)c1 | 100 | 1580 nM | 15.8 nM | –
3 | O=C(O)C[C@H](C(=O)N1CC[C@@H](CCc2ccc3c(n2)NCCC3)C1)c1ccsc1 | 125 | 501 nM | 3.98 nM | –
4 | O=C(O)C[C@H](C(=O)N1CC[C@@H](CCc2ccc3c(n2)NCCC3)C1)c1cccc(O)c1 | 40 | 158 nM | 3.98 nM | –
5 | O=C(O)CCn1ccc2cc(OCCCNc3ccccn3)ccc21 | 6 | 251 nM | 39.8 nM | –
6 | O=C(O)C[C@H](C(=O)N1CC[C@@H](CCc2ccc3c(n2)NCCC3)C1)c1ccccc1 | 250 | 1000 nM | 3.98 nM | IC50 (Integrin alpha-V/beta-6): > 79400 nM; IC50 (Integrin alpha-V/beta-8): > 79400 nM; IC50 (Integrin alpha-V/beta-1): 3980 nM
7 | O=C(O)C[C@H](C(=O)N1CC[C@@H](CCc2ccc3c(n2)NCCC3)C1)c1cccc(C2CC2)c1 | 800 | 6310 nM | 7.94 nM | IC50 (Integrin alpha-V/beta-3 [3]): > 10000 nM; IC50 (Integrin alpha-V/beta-5 [4]): 316 nM
8 | N#Cc1cccc([C@H](CC(=O)O)C(=O)N2CC[C@@H](CCc3ccc4c(n3)NCCC4)C2)c1 | 160 | 501 nM | 3.16 nM | CLH [5]: < 7 mL/min/kg; solubility [6]: 192 µg/mL (≈ 444 µM); chromatographic logD [7]: 3.69; clearance [8]: < 0.4 mL/min/g; clearance [9]: < 14 mL/min/kg; CLH [10]: < 0.45 mL/min/g; CLH [11]: 30 mL/min/kg; clearance [12]: < 6 mL/min/kg; Papp [13]: 5.7 ×10⁻⁶ cm/s; CLH [14]: 1.4 mL/min/g; clearance [15]: < 0.46 mL/min/g
9 | O=C(O)C[C@H](C(=O)N1CC(CCc2ccc3c(n2)NCCC3)C1)c1ccccc1 | 125 | 3160 nM | 25.1 nM | –
10 | O=C(O)C[C@H](C(=O)N1CC[C@@H](CCc2ccc3c(n2)NCCC3)C1)c1ccc(Br)cc1 | 200 | 1260 nM | 6.31 nM | –
11 | O=C(O)C[C@H](C(=O)N1CC[C@@H](CCc2ccc3c(n2)NCCC3)C1)c1cccc(C2CCCC2)c1 | 200 | 2510 nM | – | –
12 | O=C(O)C[C@H](C(=O)N1CC[C@@H](CCc2ccc3c(n2)NCCC3)C1)c1ccc(Br)s1 | 20 | 200 nM | 10 nM | –
13 | O=C(O)C[C@H](C(=O)N1CC[C@@H](CCc2ccc3c(n2)NCCC3)C1)c1cccc(C2=CCCC2)c1 | 160 | 1260 nM | 7.94 nM | –
14 | O=C(O)C[C@@H](C(=O)N1CC[C@@H](CCc2ccc3c(n2)NCCC3)C1)c1cccc(Br)c1 | 5 | 10000 nM | 2000 nM | –
15 | O=C(O)C[C@H](C(=O)N1CC[C@@H](CCc2ccc3c(n2)NCCC3)C1)c1cccs1 | 160 | 794 nM | 5.01 nM | –

Further compounds by falling IC50 (Integrin alpha-V/beta-3 [1]), results first:

Row | Ratio IC50 (Homo sapiens) | IC50 (Integrin alpha-V/beta-3 [1]) | IC50 (Integrin alpha-V/beta-5 [2]) | SMILES | also measured
16 | 10 | 12600 nM | 1260 nM | O=C(O)C[C@H](C(=O)N1CC[C@@H](CCc2ccc3c(n2)NCCC3)C1)c1ccccc1Br | –
17 | 13 | 6310 nM | 501 nM | O=C(O)C[C@H](C(=O)N1CCCC(CCc2ccc3c(n2)NCCC3)C1)c1ccccc1 (some centres not stated) | –
18 | 25 | 5010 nM | 200 nM | CN(CCCCc1ccc2c(n1)NCCC2)C(=O)[C@@H](CC(=O)O)c1ccccc1 | –
19 | 800 | 5010 nM | – | O=C(O)C[C@H](C(=O)N1CC[C@@H](CCc2ccc3c(n2)NCCC3)C1)c1cccc(C(F)(F)F)c1 | IC50 (Integrin alpha-V/beta-3 [3]): > 10000 nM; IC50 (Integrin alpha-V/beta-5 [4]): 794 nM; CLH [5]: < 7 mL/min/kg; solubility [6]: 141 µg/mL (≈ 297 µM); chromatographic logD [7]: 5.05; clearance [8]: < 0.4 mL/min/g; clearance [9]: < 14 mL/min/kg; CLH [10]: < 0.45 mL/min/g; CLH [11]: 68 mL/min/kg; clearance [12]: < 6 mL/min/kg; Papp [13]: 29.5 ×10⁻⁶ cm/s; CLH [14]: 14.3 mL/min/g; clearance [15]: < 0.46 mL/min/g
20 | 400 | 3980 nM | 10 nM | Cc1cc(C)cc([C@H](CC(=O)O)C(=O)N2CC[C@@H](CCc3ccc4c(n3)NCCC4)C2)c1 | IC50 (Integrin alpha-V/beta-3 [3]): > 10000 nM; IC50 (Integrin alpha-V/beta-5 [4]): 501 nM
21 | 500 | 2510 nM | 5.01 nM | C=C(C)c1cccc([C@H](CC(=O)O)C(=O)N2CC[C@@H](CCc3ccc4c(n3)NCCC4)C2)c1 | IC50 (Integrin alpha-V/beta-3 [3]): > 10000 nM; IC50 (Integrin alpha-V/beta-5 [4]): 316 nM
22 | 320 | 2000 nM | 6.31 nM | O=C(O)C[C@H](C(=O)N1CC[C@@H](CCc2ccc3c(n2)NCCC3)C1)c1cccc(-c2ccccc2)c1 | –
23 | 160 | 2000 nM | 12.6 nM | O=C(O)C[C@H](C(=O)N1CC[C@@H](CCc2ccc3c(n2)NCCC3)C1)c1cccc(N2CCOCC2)c1 | –
24 | 400 | 1580 nM | 3.98 nM | Cc1cccc([C@H](CC(=O)O)C(=O)N2CC[C@@H](CCc3ccc4c(n3)NCCC4)C2)c1 | IC50 (Integrin alpha-V/beta-3 [3]): 6310 nM; IC50 (Integrin alpha-V/beta-5 [4]): 79.4 nM; CLH [5]: < 7 mL/min/kg; solubility [6]: 142 µg/mL (≈ 337 µM); chromatographic logD [7]: 4.16; clearance [8]: < 0.4 mL/min/g; clearance [9]: < 14 mL/min/kg; CLH [10]: < 0.45 mL/min/g; CLH [11]: 46 mL/min/kg; clearance [12]: < 6 mL/min/kg; Papp [13]: 17.6 ×10⁻⁶ cm/s; CLH [14]: 3.2 mL/min/g; clearance [15]: < 0.46 mL/min/g
25 | 320 | 1580 nM | 5.01 nM | O=C(O)C[C@H](C(=O)N1CC[C@@H](CCc2ccc3c(n2)NCCC3)C1)c1cc(Br)cc(Br)c1 | –
26 | 125 | 1260 nM | 10 nM | CN1CCN(c2cccc([C@H](CC(=O)O)C(=O)N3CC[C@@H](CCc4ccc5c(n4)NCCC5)C3)c2)CC1 | –
27 | 400 | 1000 nM | 2.51 nM | O=C(O)C[C@H](C(=O)N1CC[C@@H](CCc2ccc3c(n2)NCCC3)C1)c1cccc(Cl)c1 | IC50 (Integrin alpha-V/beta-3 [3]): 6310 nM; IC50 (Integrin alpha-V/beta-5 [4]): 126 nM
28 | 100 | 794 nM | 7.94 nM | O=C(O)C[C@H](C(=O)N1CC(CCCc2ccc3c(n2)NCCC3)C1)c1ccccc1 | –
29 | 200 | 631 nM | 3.16 nM | Cc1csc([C@H](CC(=O)O)C(=O)N2CC[C@@H](CCc3ccc4c(n3)NCCC4)C2)c1 | –
30 | 100 | 316 nM | 3.16 nM | O=C(O)C[C@H](C(=O)N1CC[C@@H](CCc2ccc3c(n2)NCCC3)C1)c1cc(Br)cs1 | –
31 | 25 | 158 nM | 6.31 nM | Cc1ccc([C@H](CC(=O)O)C(=O)N2CC[C@@H](CCc3ccc4c(n3)NCCC4)C2)s1 | –
32 | 4 | 39.8 nM | 10 nM | CNc1cccc(CCOc2ccc3c(ccn3CCC(=O)O)c2)n1 | –
